Holding throughout (type): biochemical
For test [1], the target named is IP6K1 (Homo sapiens (Human), UniProt Q92551). Put plainly: Enzyme-coupled assay of IP6K1 activity (Dipp1-coupled, malachite green Pi release). As to the method: (§1) […] The cells were disrupted using a constant cell disruption system (Constant Systems) under 20 kPsi.
(§2) Pi release was determined with a malachite green colorimetric assay.^45 Where indicated, TNP (Cayman Chemical) was added to the assays (FIG. 2A-E).

The target of test [2] is IPMK (Homo sapiens (Human), UniProt Q8NFU5). Kind of test: Enzyme-coupled assay, IPMK IC50.
IPMK, sequence (Q8NFU5 whole entry, species assumed): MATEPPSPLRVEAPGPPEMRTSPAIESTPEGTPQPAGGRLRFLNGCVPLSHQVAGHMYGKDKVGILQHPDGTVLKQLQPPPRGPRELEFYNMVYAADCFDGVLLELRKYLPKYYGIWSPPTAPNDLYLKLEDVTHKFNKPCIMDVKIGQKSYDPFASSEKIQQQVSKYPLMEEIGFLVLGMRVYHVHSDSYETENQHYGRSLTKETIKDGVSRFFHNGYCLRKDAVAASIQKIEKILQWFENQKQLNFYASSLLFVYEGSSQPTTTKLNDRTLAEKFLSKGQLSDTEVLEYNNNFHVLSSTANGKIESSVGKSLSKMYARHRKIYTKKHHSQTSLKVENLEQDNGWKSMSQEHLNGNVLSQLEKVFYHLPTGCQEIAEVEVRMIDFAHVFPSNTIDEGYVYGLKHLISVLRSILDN
Test [3] concerns the target IP6K2 (Homo sapiens (Human), UniProt Q9UHH9). Kind of test: Enzyme-coupled assay of IP6K2 activity (Dipp1-coupled, malachite green Pi release). As to the method: as §1, §2
[4] abbreviates: determined from enzyme-coupled assays.

Molecules are shown by their SMILES. Where only a bound is given, the exact number is not on record here.

This is an account of results in patent US20250154115A1, “ARYLBENZOISOXAZOLE COMPOUNDS AS IP6K AND IPMK INHIBITORS AND METHODS OF USE THEREOF” (THE UNIVERSITY OF NORTH CAROLINA AT CHAPEL HILL, priority 2022, published 2025).

In general, IC50 refers to the midpoint of a concentration-inhibition curve. The low end stands for greater potency in that assay, the high end for weaker potency in that assay.

IP6K1, sequence (Q92551 whole entry): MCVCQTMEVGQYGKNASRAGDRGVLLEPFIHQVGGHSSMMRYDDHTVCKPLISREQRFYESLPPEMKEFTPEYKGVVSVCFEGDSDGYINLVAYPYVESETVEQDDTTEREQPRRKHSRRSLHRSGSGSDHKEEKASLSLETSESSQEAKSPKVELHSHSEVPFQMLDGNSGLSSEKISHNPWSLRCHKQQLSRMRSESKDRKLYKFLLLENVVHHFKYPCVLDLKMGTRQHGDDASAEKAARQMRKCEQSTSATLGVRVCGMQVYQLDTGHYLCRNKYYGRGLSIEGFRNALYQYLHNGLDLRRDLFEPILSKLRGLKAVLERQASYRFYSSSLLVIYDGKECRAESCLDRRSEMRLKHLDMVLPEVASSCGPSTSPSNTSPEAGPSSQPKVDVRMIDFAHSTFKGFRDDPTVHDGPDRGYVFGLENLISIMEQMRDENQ
IP6K2, sequence (Q9UHH9 whole entry): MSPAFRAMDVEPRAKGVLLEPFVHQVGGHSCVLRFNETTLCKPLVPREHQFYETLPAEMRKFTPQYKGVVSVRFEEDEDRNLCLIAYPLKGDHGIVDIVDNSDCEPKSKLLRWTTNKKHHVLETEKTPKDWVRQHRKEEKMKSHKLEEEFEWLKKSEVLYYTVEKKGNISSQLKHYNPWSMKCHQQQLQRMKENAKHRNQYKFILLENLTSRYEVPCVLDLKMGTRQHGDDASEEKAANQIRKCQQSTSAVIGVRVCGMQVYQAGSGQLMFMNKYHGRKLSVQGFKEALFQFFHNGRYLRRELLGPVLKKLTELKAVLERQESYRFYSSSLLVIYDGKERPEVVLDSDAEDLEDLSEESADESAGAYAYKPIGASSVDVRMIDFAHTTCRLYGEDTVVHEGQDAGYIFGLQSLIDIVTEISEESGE

Consider `O=C(N1CCC(c2ccc(-c3onc4ccc(-c5nnn[nH]5)cc34)cc2)CC1)C1(F)CC1` [Compound 123], for which the IC50 in test [1] (enzyme-coupled assay, Table 4) was in the range of 100 to 1000 nM. Regarding `c1cc(OC2CCN(CC3CC3)CC2)cc(-c2onc3ccc(-c4nnn[nH]4)cc23)c1` [Compound 88, 3-(3-((1-(cyclopropylmethyl)piperidin-4-yl)oxy)phenyl)-5-(1H-tetrazol-5-yl)benzo[c]isoxazole], the IC50 in test [2] (enzyme-coupled assay, Table 4) was 10 to 100 nM; in test [1] (enzyme-coupled assay, Table 4) it was 10 to 100 nM; in test [3] (enzyme-coupled assay, Table 4) it was 100 to 1000 nM. Turning to `O=c1[nH]c(-c2ccc3noc(-c4cccc(OC5CCNCC5)c4)c3c2)no1` [Cmpd 129], the IC50 in test [2] (setting [4]) was under 10 nM; in test [1] (setting [4]) it was 10 to 100 nM; in test [3] (setting [4]) it was 10 to 100 nM.

Turning to `O=C(O)c1ccc2noc(-c3cccc(NC(=O)C4CCCC4)c3)c2c1` [Compound 49], the concentration for half-maximal inhibition (IC50) was 10 to 100 nM in test [2] (enzyme-coupled assay, Table 2); 100 to 1000 nM in test [1] (enzyme-coupled assay, Table 2); 100 to 1000 nM in test [3] (enzyme-coupled assay, Table 2). As to `COc1ccc(COc2cncc(-c3cccc(-c4onc5ccc(C(=O)O)cc45)c3)c2)cc1` [Compound 52], the IC50 in test [2] (enzyme-coupled assay, Table 2) was in the range of 100 to 1000 nM; in test [1] (enzyme-coupled assay, Table 2) it was 100 to 1000 nM; in test [3] (enzyme-coupled assay, Table 2), 100 to 1000 nM.

As to `CC(C)C(=O)N1CCC(c2ccc(-c3onc4ccc(-c5nnn[nH]5)cc34)cc2)CC1` [Compound 120], in test [1] (enzyme-coupled assay, Table 4), the IC50 lay within 100 to 1000 nM. With `Clc1ccc(-c2cccc(-c3onc4ccc(-c5nnn[nH]5)cc34)c2)c(Cl)c1` [Compound 84], the IC50 in test [2] (enzyme-coupled assay, Table 4) was in the range of 10 to 100 nM; in test [1] (enzyme-coupled assay, Table 4), 10 to 100 nM; in test [3] (enzyme-coupled assay, Table 4) it was 10 to 100 nM. `O=C1CC(C(=O)N2CCC(c3cccc(-c4onc5ccc(-c6nnn[nH]6)cc45)c3)CC2)C1` [Compound 110] registered an IC50 in test [1] (enzyme-coupled assay, Table 4) of 10 to 100 nM. Still for that read-out and setting: the result for `O=C(Nc1ccc(-c2onc3ccc(-c4nnn[nH]4)cc23)cc1)[C@@H]1CCCN1` [Compound 100] reads 100 to 1000 nM. The same measure, in the same setting: in the case of `CC1(C(=O)N2CCC(c3cccc(-c4onc5ccc(-c6nnn[nH]6)cc45)c3)CC2)COC1` [Compound 108] it was 100 to 1000 nM; in that of `c1cc2noc(-c3ccc(C4CCNCC4)cc3)c2cc1-c1nnn[nH]1` [Compound 117], 100 to 1000 nM; in that of `CC1(C(=O)N2CCC(c3ccc(-c4onc5ccc(-c6nnn[nH]6)cc45)cc3)CC2)COC1` [Compound 121], 100 to 1000 nM.

Turning to `CC(C)(C)OC(=O)N1CCC(Oc2cccc(-c3onc4ccc(-c5noc(=O)[nH]5)cc34)c2)CC1` [Cmpd 128], the IC50 in test [2] (setting [4]), in test [1] (setting [4]) and in test [3] (setting [4]) was 10 to 100 nM in each case. Consider `O=C(C1CCCC1)N1CCC(Oc2cccc(-c3onc4ccc(-c5nnn[nH]5)cc34)c2)CC1` [Compound 94], for which the half-maximal inhibitory concentration (IC50) was 10 to 100 nM in test [1] (enzyme-coupled assay, Table 4) and 10 to 100 nM in test [3] (enzyme-coupled assay, Table 4). `CC(=O)N1CCC(c2cccc(-c3onc4ccc(-c5nnn[nH]5)cc34)c2)CC1` [Compound 106] registered a half-inhibitory concentration (IC50) in test [1] (enzyme-coupled assay, Table 4) of 10 to 100 nM. Consider `O=C(N1CCC(c2cccc(-c3onc4ccc(-c5nnn[nH]5)cc34)c2)CC1)C1(F)CC1` [Compound 112], for which the IC50 in test [1] (enzyme-coupled assay, Table 4) is 10 to 100 nM.

Compound `c1cc(-c2onc3ccc(-c4nnn[nH]4)cc23)cc(C2CCN(C3CCCC3)CC2)c1` [Compound 114] registered a half-inhibitory concentration (IC50) in test [1] (enzyme-coupled assay, Table 4) of 100 to 1000 nM. Still for that read-out and setting: the result for `CC(=O)N1CCC(c2ccc(-c3onc4ccc(-c5nnn[nH]5)cc34)cc2)CC1` [Compound 119] reads 100 to 1000 nM. `O=C(Nc1ccc(-c2onc3ccc(-c4nnn[nH]4)cc23)cc1)C1CCNC1` (stereo not shown) [Compound 101]: the half-inhibitory concentration (IC50) in test [1] (enzyme-coupled assay, Table 4) lay within 100 to 1000 nM. On the same count and under the same terms, in the case of `CC(C)(C)OC(=O)N1CCCC1C(=O)N1CCC(c2cccc(-c3onc4ccc(-c5nnn[nH]5)cc34)c2)CC1` (stereo not shown) [Compound 116] it was 100 to 1000 nM; in that of `c1cc(-c2onc3ccc(-c4nnn[nH]4)cc23)cc(C2CCN(CC3CC3)CC2)c1` [Compound 107], 10 to 100 nM. `O=C(O)c1ccc2noc(-c3ccc(-c4cccnc4)cc3)c2c1` [Compound 57] registered an IC50 in test [2] (enzyme-coupled assay, Table 3) of 10 to 100 nM. Take `c1cc(OC2CCN(C3CCC3)CC2)cc(-c2onc3ccc(-c4nnn[nH]4)cc23)c1` [Compound 62]: the IC50 lay in the range of 10 to 100 nM in test [2] (enzyme-coupled assay, Table 4) and 100 to 1000 nM in test [3] (enzyme-coupled assay, Table 4). On to `O=C(C1CC1)N1CCC(c2ccc(-c3onc4ccc(-c5nnn[nH]5)cc34)cc2)CC1` [Compound 122], for which, in test [1] (enzyme-coupled assay, Table 4), the IC50 lay in the range of 100 to 1000 nM.

In the case of `O=C(Nc1ccc(-c2onc3ccc(-c4nnn[nH]4)cc23)cc1)C1CCCCC1` [Compound 98], in test [1] (enzyme-coupled assay, Table 4), the IC50 fell in the range of 100 to 1000 nM. As to `CC(C)(C)OC(=O)Nc1cccc(-c2cccc(-c3onc4ccc(-c5nnn[nH]5)cc34)c2)c1` [Compound 96], the IC50 fell in the range of 10 to 100 nM in test [1] (enzyme-coupled assay, Table 4) and 10 to 100 nM in test [3] (enzyme-coupled assay, Table 4). For the compound `c1cc(-c2onc3ccc(-c4nnn[nH]4)cc23)cc(C2CCN(C3CC4(CCC4)C3)CC2)c1` [Compound 113], the IC50 in test [1] (enzyme-coupled assay, Table 4) was in the range of 100 to 1000 nM. In test [1] (enzyme-coupled assay, Table 4), `O=C(C1CC1)N1CCC(c2cccc(-c3onc4ccc(-c5nnn[nH]5)cc34)c2)CC1` [Compound 111] came in with an IC50 of 10 to 100 nM.
